This is an account of results in ChEMBL document CHEMBL3507680, “University of Dundee, Gates Library screen for HepG2 cell viability”.

SMILES strings stand for the structures.

The series can be described thus: Human HepG2 cell viability assay in 384 well format. It counts as toxicity, cell-based. On the set-up: dose 125 nL, time 70.5 hour; concentration not given beside the values. The conditions noted are these: HepG2 cells, read-out: Inhibition.

With `CN1CCN(c2cnn(CCn3cccn3)c(=O)c2)CC1`, the cytotoxicity at 70.5 h was -3.04%.

Take `Cc1ccccc1C(C(=O)NCCN1CCC(CO)CC1)N(C)C` (stereo not given): the cytotoxicity at 70.5 h was -3%. Regarding `Cc1nccc(-c2cccc(-c3ccn(CC4CCNC4)n3)c2)n1` (stereo not given), the cytotoxicity at 70.5 h is -3.45%. For `COc1ccc(-c2cn(CCn3c(C)cc(C)nc3=O)nn2)cn1`, the cytotoxicity at 70.5 h was -9.73%. For `CCc1ccccc1CN1CCN(Cc2ncc[nH]2)[C@H]2CS(=O)(=O)C[C@H]21`, the cytotoxicity at 70.5 h was -3.46%. Regarding `Cc1cc(NC(C)Cc2cccs2)n2nccc2n1` (stereo not given), the cytotoxicity at 70.5 h was -14.7%.

With `Cc1ccc(C(=O)N2C[C@H](NS(C)(=O)=O)[C@@H](C(C)C)C2)cc1F`, the cytotoxicity at 70.5 h was 2.48%. Take `Cc1cc(Cl)ccc1C(=O)C1CCCN(Cc2cnc(N(C)C)s2)C1` (stereo not given): the cytotoxicity at 70.5 h was -5.77%.

On to `Cc1nn(C)c(Oc2ccc(Cl)cc2)c1CN1CC[C@H](CO)[C@@H](O)C1`, for which the cytotoxicity at 70.5 h is -12.9%. As for `CC(C)=CCN1CCN(CCCc2ccccc2)[C@H]2CS(=O)(=O)C[C@H]21`, the cytotoxicity at 70.5 h was -6.15%. To `COCCN1CC(Nc2nc(C3CCCC3)nc3c2cnn3C)CC1=O` (stereo not given) belongs 18.4%; to `O=C(c1cc(Cn2ccc3ccccc32)[nH]n1)N1CCOCC1`, -0.75%; to `Cc1nc(CN(C)c2nccc(C(F)(F)F)n2)cs1`, -7.33%.

Consider `Nc1ncccc1CN1C[C@@H]2CC[C@H](C1)N(CC1CC1)C2=O`, for which the cytotoxicity at 70.5 h came to 28%. `CCC(=O)N1CCc2[nH]cnc2C12CCN(C1CCOCC1)CC2`: the cytotoxicity at 70.5 h was -4.44%. Consider `O=C(NCc1c[nH]c(=O)[nH]c1=O)C1CCOc2ccccc2C1` (stereo not given), for which the cytotoxicity at 70.5 h stood at 8.26%. With `CCn1nc(C)c(CCNC(=O)C2CCCN(C(=O)COC)C2)c1C` (stereo not given), the cytotoxicity at 70.5 h came out at 18%.

Regarding `CC(C)C1CN(S(=O)(=O)C2CC2)CCCN1Cc1ccc(F)cc1` (stereo not given), the cytotoxicity at 70.5 h is -3.51%. Take `COC(=O)c1ccn(CC(=O)Nc2nn(CC3CC3)c3ccccc23)n1`: the cytotoxicity at 70.5 h is -0.998%. Take `CN1CSC[C@H]1C(=O)N1CCN(Cc2cccc(Cl)c2)CC1`: the cytotoxicity at 70.5 h is -5.08%. Consider `COCC1CCN(C(=O)c2cc(-c3ccco3)nc3c(Cl)cccc23)C1` (stereo not given), for which the cytotoxicity at 70.5 h is -20.7%. As for `Cc1ccc(C2(O)CCN(C(=O)CCn3ccc(=O)[nH]c3=O)CC2)nc1`, the cytotoxicity at 70.5 h was -10.1%. On to `COc1cc(C)ccc1OCc1nc(C(=O)N2CCCC2)co1`, for which the cytotoxicity at 70.5 h worked out at 0.58%. Then `CCN(CC)C(=O)Cn1cc(-c2nc(-c3ccccc3C)no2)nn1`, with -9.94%; and `CCOCCNC(=O)c1cccc(S(=O)(=O)NC[C@@H]2C[C@H](F)CN2)c1`, with 31.3%; and `COCc1cc(CN(C)C(C(=O)O)c2cc(C)c(OC)c(C)c2)n[nH]1` (stereo not given), with -2.3%. As to `Cc1cnc(-n2cnnc2)c(-c2cccc3c2CCNC3)c1`, the cytotoxicity at 70.5 h is -7.78%. On to `CN(Cc1ccccc1)S(=O)(=O)N1C[C@H](C2CC2)[C@@H](N)C1`, for which the cytotoxicity at 70.5 h is -1.23%.

In the case of `O=C(c1c[nH]c(=O)[nH]c1=O)N1CCCC(c2nccn2CC2CCC2)C1` (stereo not given), the cytotoxicity at 70.5 h was -24.3%. Consider `CC/C=C(\C)CN1CCC(CNC(=O)c2ccc(=O)[nH]c2)CC1`, for which the cytotoxicity at 70.5 h is -6.38%. As to `Cc1ccc2nc(CN3CCC(O)(CN4CCCC4)CC3)cc(O)c2c1`, the cytotoxicity at 70.5 h is -7.1%. Consider `CN(CC1Cc2ccccc2CN1C)C(=O)Cc1cccs1` (stereo not given), for which the cytotoxicity at 70.5 h was -6.46%.

Turning to `CCn1c(Cn2ccnc2)nnc1C1CCN(Cc2ccc(C)o2)CC1`, the cytotoxicity at 70.5 h is 5.39%. As to `c1cncc(NCCNC2CCSC2)c1` (stereo not given), the cytotoxicity at 70.5 h was found to be 14.7%. Then `Cc1nonc1C1CCCN1C(=O)c1cc2n(n1)CCCN(C(C)C)C2` (stereo not given), with -6.2%; and `O=C(NCCN1CCOC1=O)c1cc(-c2ccccc2)on1`, with 33.3%; and `CN1CC2(CCCN(Cc3nnc(-c4ccco4)o3)CC2)OC1=O` (stereo not given), with -0.887%. To `CSCc1nc(CCNC(=O)c2cnn(C(C)C)c2)cs1` belongs -1.66%; to `O=S1(=O)C[C@@H]2[C@H](C1)N(Cc1cccc(O)c1)CCN2CC1CC1`, -5.99%. To `CCCc1cc(C(=O)NC2CCCCNC2=O)[nH]n1` (stereo not given) belongs -5.95%. For the molecule `CC(=O)Nc1ccc2nc(-c3nccn3CC(C)(C)CO)ccc2c1`, the cytotoxicity at 70.5 h was -11%. On to `C1CCC(CNC2CCSCC2)(N2CCOCC2)CC1`, for which the cytotoxicity at 70.5 h was found to be 3.74%. Take `COc1ccc(Oc2ccc(C(F)(F)F)cn2)cc1CN1CCCC1`: the cytotoxicity at 70.5 h was -11.6%.

`Oc1cc(CN2CCC(O)(Cn3ccnc3)CC2)nc2ccc(F)cc12`: the cytotoxicity at 70.5 h is -7.61%. For `Cc1ccc2nc(C)c(C)c(C(=O)NCCCn3cnnc3)c2c1`, the cytotoxicity at 70.5 h is -2.61%. For the molecule `Cc1nc2c(c(N3CCN(c4ncccc4C(N)=O)CC3)n1)CCNC2`, the cytotoxicity at 70.5 h is -3.51%. For `COCCN1C[C@H]2CC[C@@H]1CN(CC(=O)Nc1ccn(C)n1)C2`, the cytotoxicity at 70.5 h is -9.39%. With `COc1cccc(N2CCN(C(C(=O)O)c3ccc(OC)nc3)CC2)c1` (stereo not given), the cytotoxicity at 70.5 h was -9.28%.

Turning to `CCN(CC)Cc1cc(C(=O)N2CC[C@@]3(O)CCCC[C@H]3C2)c(C)o1`, the cytotoxicity at 70.5 h is -9.79%. `CC(C)CN1CC2(CCN(C(=O)C(O)c3cccc(Cl)c3)CC2)CC1=O` (stereo not given): the cytotoxicity at 70.5 h amounted to 1.55%. With `CCN1CCC2(CCC1=O)CN(c1nccc(N)n1)CCN2C` (stereo not given), the cytotoxicity at 70.5 h is -4.72%. To `NCc1cn(CC2CCCN(C(=O)NCCc3ccc(F)cc3)C2)nn1` (stereo not given) belongs 22.7%; to `Cn1cnc(S(=O)(=O)N2C[C@@H]3CC[C@H](C2)N(Cc2cscn2)C3=O)c1`, -6.52%; to `CC(C)c1noc(CC[C@@H]2CCCN3CCCC[C@H]23)n1`, -0.439%. Take `O=C(Cn1nnc(-c2ccc(F)cc2)n1)N1CCOCC(O)C1` (stereo not given): the cytotoxicity at 70.5 h was -1.8%. To `CCN(Cc1ccc(C(C)C)cc1)C(=O)c1csc(CN(C)C)n1` belongs 7.36%. As for `CC(C)=CCN1CCc2onc(-c3ccc(F)c(F)c3)c2C1`, the cytotoxicity at 70.5 h was -11.7%. With `O=C(O)c1cccnc1CN1CCCCC1CCc1ccccn1` (stereo not given), the cytotoxicity at 70.5 h was -14.4%.

Consider `CCc1ccc2nc(C)cc(C(=O)N[C@@H]3C[C@@H](CO)N(C)C3)c2c1`, for which the cytotoxicity at 70.5 h is -3.88%. For `CCN(CC)Cc1cc(C(=O)N2CCC3(CC2)NCCNC3=O)c(C)o1`, the cytotoxicity at 70.5 h was 1.97%. Take `Cn1ccnc1-c1ccc(NCc2cn3c(n2)SCC3)nn1`: the cytotoxicity at 70.5 h was -1.93%. Then `CN(C)S(=O)(=O)N1CCCCC1CCc1ccc(O)cc1` (stereo not given), with -6.59%. Consider `O=C(CN1CCCCC1=O)N1CCC2(CC1)[C@H](O)C[C@@H]2O`, for which the cytotoxicity at 70.5 h is -3.31%.

On to `O=C(CSc1ccncc1)NC1CC(=O)N(CCc2ccccc2)C1` (stereo not given), for which the cytotoxicity at 70.5 h is -8.43%.

Regarding `CN(C)CC1(O)CCN(C(=O)c2cnc(CN3CCCC3)s2)C1` (stereo not given), the cytotoxicity at 70.5 h was 0.326%. Take `CN(C)c1nc2c(c(N3CCc4c(c(CO)nn4C)C3)n1)CCNC2`: the cytotoxicity at 70.5 h is 46.5%.

As to `Cc1ccc2c(c1)c(CNC(C)Cn1nc(C)cc1C)nn2C` (stereo not given), the cytotoxicity at 70.5 h came out at 2.8%. Regarding `Cc1ccc(CN2C[C@@H](C(=O)O)[C@H](c3ccccn3)C2)o1`, the cytotoxicity at 70.5 h was 17.9%. `Cc1cn2cc(-c3nc4c([nH]3)CCCNC4=O)nc2s1`: the cytotoxicity at 70.5 h was -10.3%. Regarding `Cn1cnnc1CN1CCC2(CCC(=O)N(Cc3ccccn3)C2)CC1`, the cytotoxicity at 70.5 h is -6.09%. Turning to `CC(C)CN1CCN(S(=O)(=O)c2cn(C)cn2)[C@H]2CS(=O)(=O)C[C@H]21`, the cytotoxicity at 70.5 h was -9.12%.

Regarding `CCOCCOc1ccccc1C(=O)N1C[C@H](C2CC2)[C@@H](N)C1`, the cytotoxicity at 70.5 h is 27.2%. Regarding `CC(C)Cc1cc(C(=O)NCCc2nnc(N)s2)n(C)n1`, the cytotoxicity at 70.5 h was -23.5%.

On to `CCc1c(C)nn(CCNC(=O)Cc2csc(C)n2)c1C`, for which the cytotoxicity at 70.5 h was -6.58%.

`Cc1cc(-c2cc(-c3cc(CC(=O)O)cs3)nc(N)c2C#N)oc1C`: the cytotoxicity at 70.5 h was -12.1%. With `CCn1nc(NC(=O)Cn2ccc(C(C)=O)n2)c2ccccc21`, the cytotoxicity at 70.5 h was determined as 26.9%. Then `CNC1CCN(C2CCN(c3ccc(-c4ccco4)cc3)CC2)CC1`, with 8.23%. For `CC(C)=CCN1CCN(C(=O)c2cc(C(C)C)no2)[C@H]2CS(=O)(=O)C[C@H]21`, the cytotoxicity at 70.5 h is -8.12%. As for `CCn1cc(-c2cc(-c3ccn(C)c3)nc(N)c2C#N)cc1C#N`, the cytotoxicity at 70.5 h worked out at 5.48%. Regarding `CN1CCN(C(=O)c2cccc(S(=O)(=O)NCC3(C)COC3)c2)CC1`, the cytotoxicity at 70.5 h was -9.16%. Consider `COC(=O)c1ccc2ccn(CC3CCCCO3)c(=O)c2c1` (stereo not given), for which the cytotoxicity at 70.5 h was -4.76%. For `CC(=O)N1C[C@@H]2CC[C@H](C1)N(C(=O)CCc1n[nH]c3c1CCCC3)C2`, the cytotoxicity at 70.5 h is 1.78%. In the case of `Cc1ccc(CN2CCC(n3cc(CN4CCC(O)CC4)nn3)CC2)s1`, the cytotoxicity at 70.5 h was -6.27%. As for `CCc1ncc2c(n1)CN(C(=O)CCCc1ccc(OC)cc1)C2`, the cytotoxicity at 70.5 h was -6.31%. Take `Cc1ncc(C(=O)N2CCCC(C(=O)CCc3ccccc3)C2)s1` (stereo not given): the cytotoxicity at 70.5 h was -13.8%. With `CN1CCN2C[C@@H](NC(=O)c3nc4ccccc4[nH]3)C[C@H]2C1`, the cytotoxicity at 70.5 h was -4.68%. Turning to `CCNc1ccnc(-c2ccnc3c2ccn3C)n1`, the cytotoxicity at 70.5 h was -2.33%. To `CCN(CCc1nc2cc(C)ccc2[nH]1)C(=O)[C@@H](N)CCSC` belongs -4.38%. `COC1CCN(C(=O)Cn2cccc(C(F)(F)F)c2=O)C1` (stereo not given): the cytotoxicity at 70.5 h is -8.78%. `C[C@@H]1CN(Cc2nc(C(N)=O)no2)CC[C@@]1(O)C1CCOCC1`: the cytotoxicity at 70.5 h was -8.91%. For the molecule `Cc1cc2c(N3CCC(N(C)Cc4nccs4)CC3)ncnc2s1`, the cytotoxicity at 70.5 h was determined as 9.35%. Regarding `Cc1csc2c(N3CCC(Cn4cc(C(C)(C)O)nn4)CC3)ncnc12`, the cytotoxicity at 70.5 h was -9.53%. `CC(C)N1CCCn2nc(C(=O)NCc3ccccc3F)cc2C1`: the cytotoxicity at 70.5 h was -5.27%. For `Cn1cc(CN2CCCC23CCN(c2nc4ccccc4s2)CC3)cn1`, the cytotoxicity at 70.5 h is -4.41%.

For `CNS(=O)(=O)CCNC(=O)c1coc(COc2ccc(F)cc2)n1`, the cytotoxicity at 70.5 h is -4.33%.
